Active and inactive are the calls of the source.
Legend:
[1] = A Cell Based Secondary Assay To Explore Cytotoxicity of Compounds that Sensitize Mycobacterium Tuberculosis to Beta-Lactam Antibiotics.; assay type: functional
[2] = viability of PTEN-deleted HCT116 cells – cell-based, HCT116 PTEN knockout, dose response (AID 1047); assay type: functional;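 also: HCT116 colon tumor cells with PTEN knocked out; cells exposed to compound for 60 hours before readout; potency for loss of cell viability measured by luminescence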
[3] = viability of HCT116 lacking mutant beta-catenin – cell-based, human colon tumor, dose response (AID 1045); assay type: functional;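 also: HCT116 colon tumor cells with beta catenin knocked out; cells exposed to compound for 60 hours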
[4] = Intein inhibitors as potential Tuberculosis drugs, a cytotoxicity screen. [Related pubchem assays (depositor defined):AID2221, AID2223, AID434968, AID435010, AID449749, AID449750, AID489010]; assay type: functional
[5] = molecular target: T1, Replicative DNA helicase DnaB (Mycobacterium tuberculosis, UniProt P9WMR3); experiment: DnaB intein splicing inhibitors, dose response, biochemical, cell-free fluorescence (AID 449749); assay type: functional
T1 sequence (P9WMR3 whole entry): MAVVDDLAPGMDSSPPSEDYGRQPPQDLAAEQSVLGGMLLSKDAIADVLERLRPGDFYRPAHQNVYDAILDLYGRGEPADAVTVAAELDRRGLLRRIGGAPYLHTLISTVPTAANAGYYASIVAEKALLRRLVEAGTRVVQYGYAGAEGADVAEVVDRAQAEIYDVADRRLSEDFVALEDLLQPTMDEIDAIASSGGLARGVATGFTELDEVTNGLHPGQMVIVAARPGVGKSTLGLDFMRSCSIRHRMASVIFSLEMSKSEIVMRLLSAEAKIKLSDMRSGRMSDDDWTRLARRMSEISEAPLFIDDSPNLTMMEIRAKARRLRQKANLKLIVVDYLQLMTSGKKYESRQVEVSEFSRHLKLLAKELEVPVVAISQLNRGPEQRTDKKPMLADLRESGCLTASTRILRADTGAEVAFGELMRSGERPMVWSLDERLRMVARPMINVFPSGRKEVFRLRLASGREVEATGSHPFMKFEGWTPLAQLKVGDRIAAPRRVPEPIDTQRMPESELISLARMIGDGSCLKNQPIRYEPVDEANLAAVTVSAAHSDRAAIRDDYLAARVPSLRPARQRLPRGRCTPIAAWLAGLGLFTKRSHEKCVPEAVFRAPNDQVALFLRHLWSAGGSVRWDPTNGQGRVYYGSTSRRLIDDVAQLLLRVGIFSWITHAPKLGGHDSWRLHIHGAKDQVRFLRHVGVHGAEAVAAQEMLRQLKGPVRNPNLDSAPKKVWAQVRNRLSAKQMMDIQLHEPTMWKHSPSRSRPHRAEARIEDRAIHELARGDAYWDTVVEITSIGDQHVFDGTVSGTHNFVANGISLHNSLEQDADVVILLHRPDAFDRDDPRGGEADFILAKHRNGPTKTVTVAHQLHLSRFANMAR

Protein RecA = molecular target: T2, Protein RecA (Mycobacterium tuberculosis, UniProt P9WHJ3); experiment: Fluorescence Cell-Free Homogeneous Dose Retest to Identify Inhibitors of RecA-Intein Splicing Activity. [Related pubchem assays (depositor defined):AID2097, AID2223, AID489010, AID492950]; assay type: functional
T2 sequence (P9WHJ3 whole entry): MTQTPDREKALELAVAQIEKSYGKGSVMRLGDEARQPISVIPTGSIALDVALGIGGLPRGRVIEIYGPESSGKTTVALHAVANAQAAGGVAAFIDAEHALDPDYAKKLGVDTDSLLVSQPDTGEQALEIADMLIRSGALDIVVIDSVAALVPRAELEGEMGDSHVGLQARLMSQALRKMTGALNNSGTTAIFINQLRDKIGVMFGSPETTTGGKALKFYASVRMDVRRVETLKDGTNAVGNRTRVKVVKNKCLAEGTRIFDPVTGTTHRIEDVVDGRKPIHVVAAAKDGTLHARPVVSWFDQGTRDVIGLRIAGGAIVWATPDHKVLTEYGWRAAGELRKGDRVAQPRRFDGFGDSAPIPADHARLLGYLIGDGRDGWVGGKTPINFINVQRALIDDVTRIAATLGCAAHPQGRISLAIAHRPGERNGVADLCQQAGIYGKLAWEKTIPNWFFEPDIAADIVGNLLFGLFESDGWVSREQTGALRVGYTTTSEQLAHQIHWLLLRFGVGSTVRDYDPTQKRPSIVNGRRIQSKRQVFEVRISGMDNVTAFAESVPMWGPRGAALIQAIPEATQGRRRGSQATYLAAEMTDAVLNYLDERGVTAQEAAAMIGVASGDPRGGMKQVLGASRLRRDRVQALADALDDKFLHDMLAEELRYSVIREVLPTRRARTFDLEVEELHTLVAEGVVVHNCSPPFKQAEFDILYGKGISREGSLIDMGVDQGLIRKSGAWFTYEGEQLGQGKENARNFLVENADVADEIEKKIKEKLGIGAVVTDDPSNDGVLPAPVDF

[6] = molecular target: T3, High affinity choline transporter 1 (Homo sapiens, UniProt Q9GZV3); experiment: human choline transporter potentiators, potency – cell-based, 10-point CRC, membrane potential dye, dose response (AID 602376); assay type: functional
T3 sequence (Q9GZV3 whole entry): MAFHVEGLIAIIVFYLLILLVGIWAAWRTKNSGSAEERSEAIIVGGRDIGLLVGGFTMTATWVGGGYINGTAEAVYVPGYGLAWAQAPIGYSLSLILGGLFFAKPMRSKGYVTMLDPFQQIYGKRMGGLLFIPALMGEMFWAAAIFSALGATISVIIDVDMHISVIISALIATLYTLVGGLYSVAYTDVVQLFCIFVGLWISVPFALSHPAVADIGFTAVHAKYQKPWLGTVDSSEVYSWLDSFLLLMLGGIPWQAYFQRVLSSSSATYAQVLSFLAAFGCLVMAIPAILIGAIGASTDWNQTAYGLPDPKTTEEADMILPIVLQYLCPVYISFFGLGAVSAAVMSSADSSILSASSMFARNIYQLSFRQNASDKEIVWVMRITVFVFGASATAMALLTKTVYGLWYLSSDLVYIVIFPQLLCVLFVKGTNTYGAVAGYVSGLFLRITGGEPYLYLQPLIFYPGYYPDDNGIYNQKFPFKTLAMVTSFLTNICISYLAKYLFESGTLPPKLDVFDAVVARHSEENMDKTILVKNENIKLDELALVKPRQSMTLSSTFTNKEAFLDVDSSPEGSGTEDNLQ

Paired box protein Pax-8 = Paired box protein Pax-8 (Homo sapiens, UniProt Q06710); experiment: PAX8 transcriptional activity inhibition in RMG-I – RMG-I cells, luciferase, cherry-pick, dose response (AID 687027); assay type: functional, cell-based;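 also: luciferase reporter driven by Pax8 target thyroperoxidase promoter measured by SteadyGlo luminescence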
Chain of Paired box protein Pax-8 (Q06710 whole entry): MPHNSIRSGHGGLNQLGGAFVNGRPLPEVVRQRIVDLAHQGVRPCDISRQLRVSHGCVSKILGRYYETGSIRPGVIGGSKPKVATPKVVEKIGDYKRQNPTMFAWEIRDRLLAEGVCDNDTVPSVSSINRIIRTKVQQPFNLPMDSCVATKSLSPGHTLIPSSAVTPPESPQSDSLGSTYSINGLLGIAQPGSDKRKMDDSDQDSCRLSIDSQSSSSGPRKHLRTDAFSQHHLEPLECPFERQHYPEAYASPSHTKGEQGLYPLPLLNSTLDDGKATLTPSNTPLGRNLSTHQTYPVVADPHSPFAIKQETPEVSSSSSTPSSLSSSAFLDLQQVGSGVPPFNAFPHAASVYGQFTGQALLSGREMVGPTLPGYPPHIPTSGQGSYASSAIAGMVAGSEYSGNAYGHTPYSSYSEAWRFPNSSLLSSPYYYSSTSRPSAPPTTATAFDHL

[7] = general cell-killing toxicity readout – plate reader, dry powder samples, cytotoxicity control for PAX8 inhibitor project, dose response (AID 743021); assay type: functional, cell-based
[8] = molecular target: Protein disulfide-isomerase (Homo sapiens, UniProt P07237); experiment: inhibition of PDI-driven insulin aggregation – biochemical, turbidity, absorbance, cherry-picked samples, dose response (AID 602350); assay type: functional
Chain of Protein disulfide-isomerase (P07237 whole entry): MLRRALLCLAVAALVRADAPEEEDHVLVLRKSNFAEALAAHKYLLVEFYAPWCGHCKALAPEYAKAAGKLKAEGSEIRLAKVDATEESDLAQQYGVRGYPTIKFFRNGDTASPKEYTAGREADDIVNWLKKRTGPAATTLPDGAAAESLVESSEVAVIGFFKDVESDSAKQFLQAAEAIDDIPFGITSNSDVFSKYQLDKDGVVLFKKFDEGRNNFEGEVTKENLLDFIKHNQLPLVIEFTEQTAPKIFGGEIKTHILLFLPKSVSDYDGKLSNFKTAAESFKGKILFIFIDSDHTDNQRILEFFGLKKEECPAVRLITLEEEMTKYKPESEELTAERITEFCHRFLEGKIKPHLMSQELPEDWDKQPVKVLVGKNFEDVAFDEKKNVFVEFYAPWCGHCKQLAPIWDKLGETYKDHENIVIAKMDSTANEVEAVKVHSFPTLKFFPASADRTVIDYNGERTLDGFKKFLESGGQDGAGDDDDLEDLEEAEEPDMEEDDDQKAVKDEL

[9] = Trypanosoma cruzi growth suppression in host cells – NIH3T3 host cells, beta-gal luminescence, confirmation (AID 2044); assay type: functional, cell-based;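 also: intracellular parasites grown in NIH/3T3 mouse fibroblasts as host cells; luminescent beta-galactosidase reporter signal from transgenic T. cruzi replicating inside host cells; inhibitors lower the luminescence signal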
[10] = NIH3T3 cell viability loss – ATP luminescence, mouse fibroblasts, counter-screen, dose response (AID 2010); assay type: functional, cell-based;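 also: cells exposed to compound for about 90 hours before reading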
Jurkat = experiment: blockers of NF-kB activation in T cells – Jurkat, luciferase reporter, luminescence, B- and T-cell, dose response (AID 489004); assay type: functional, cell-based; details: Homo sapiens;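 also: NF-kB luciferase reporter Jurkat cells stimulated with PMA plus ionomycin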
[11] = HEK-293T viability loss, compound-treated – cell-based, uHTS hits, cytotoxicity control for B/T-cell NF-kB inhibitor project, dose response (AID 489019); assay type: functional;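 also: IC50 reflects cytotoxicity as loss of cell viability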
INS1 = experiment: INS-1E survival protection against cytokine death – cell-based, luminescence, retest, dose response (AID 449756); assay type: functional; details: Rattus norvegicus;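 also: cell death triggered by IL-1 beta plus TNF-alpha plus IFN-gamma mixture; protective hits raise ATP signal compared with cytokine alone wells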
Insulin-degrading enzyme [12] = molecular target: T4, Insulin-degrading enzyme (Homo sapiens, UniProt P14735); experiment: recombinant IDE activation, cell-free – biochemical, fluorescence polarization, counter-screen for IDE activator project, dose response (AID 588681)
T4 sequence (P14735 whole entry): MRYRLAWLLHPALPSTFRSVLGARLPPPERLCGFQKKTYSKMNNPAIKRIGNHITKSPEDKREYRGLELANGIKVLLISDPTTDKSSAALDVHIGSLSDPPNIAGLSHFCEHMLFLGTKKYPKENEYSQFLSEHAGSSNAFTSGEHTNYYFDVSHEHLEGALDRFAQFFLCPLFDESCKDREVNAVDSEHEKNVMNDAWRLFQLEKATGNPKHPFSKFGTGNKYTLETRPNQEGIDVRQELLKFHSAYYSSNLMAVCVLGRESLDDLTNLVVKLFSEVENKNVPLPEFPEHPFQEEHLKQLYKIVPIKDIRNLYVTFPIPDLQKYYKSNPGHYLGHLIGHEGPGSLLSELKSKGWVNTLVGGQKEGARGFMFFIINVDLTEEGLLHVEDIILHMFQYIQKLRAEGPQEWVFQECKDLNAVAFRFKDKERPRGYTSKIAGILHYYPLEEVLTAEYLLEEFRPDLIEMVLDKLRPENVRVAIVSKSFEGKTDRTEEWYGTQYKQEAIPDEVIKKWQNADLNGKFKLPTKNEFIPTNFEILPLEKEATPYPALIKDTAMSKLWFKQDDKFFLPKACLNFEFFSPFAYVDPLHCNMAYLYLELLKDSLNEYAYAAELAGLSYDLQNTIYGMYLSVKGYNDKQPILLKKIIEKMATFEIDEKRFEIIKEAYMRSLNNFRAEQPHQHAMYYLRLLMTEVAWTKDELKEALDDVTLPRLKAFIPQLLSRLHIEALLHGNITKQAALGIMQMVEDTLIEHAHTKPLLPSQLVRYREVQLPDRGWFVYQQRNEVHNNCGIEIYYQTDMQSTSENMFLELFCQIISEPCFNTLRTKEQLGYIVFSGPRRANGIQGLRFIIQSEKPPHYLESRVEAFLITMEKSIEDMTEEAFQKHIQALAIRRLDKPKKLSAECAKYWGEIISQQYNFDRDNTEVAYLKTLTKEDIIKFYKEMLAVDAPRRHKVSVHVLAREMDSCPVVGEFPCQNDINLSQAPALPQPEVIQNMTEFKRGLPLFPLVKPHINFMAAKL

Insulin-degrading enzyme [13] = molecular target: T4, Insulin-degrading enzyme; experiment: cellular IDE activation of Abeta substrate cleavage – fluorescence polarization, HEK cells, dose response (AID 588439); assay type: functional, cell-based
HEK293 [14] = experiment: membrane integrity loss in HEK cells – cell-based, fluorescence, cytotoxicity control for IDE activator project, dose response (AID 588440); assay type: functional; details: Homo sapiens;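 also: cytotoxicity by LDH release measuring loss of membrane integrity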
HEK293 [15] = experiment: optical interference in Abeta FP readout, dose response, artefact control for IDE activator project, biochemical, fluorescence polarization (AID 588442); assay type: functional, cell-based; details: Homo sapiens
[16] = Luminescence Cell-Based Dose Retest to Confirm Inhibitors of Cancer Stem Cells. [Related pubchem assays (depositor defined):AID2717, AID2721]; assay type: functional; details: Homo sapiens
Phospholipase D1 = molecular target: T5, Phospholipase D1 (Homo sapiens, UniProt Q13393); experiment: cellular phospholipase D1 inhibition IC50 – cell-based, dose response (AID 602151); assay type: functional;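 also: cellular PLD1 assay in Calu-1 cells stimulated with PMA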
T5 sequence (Q13393 whole entry): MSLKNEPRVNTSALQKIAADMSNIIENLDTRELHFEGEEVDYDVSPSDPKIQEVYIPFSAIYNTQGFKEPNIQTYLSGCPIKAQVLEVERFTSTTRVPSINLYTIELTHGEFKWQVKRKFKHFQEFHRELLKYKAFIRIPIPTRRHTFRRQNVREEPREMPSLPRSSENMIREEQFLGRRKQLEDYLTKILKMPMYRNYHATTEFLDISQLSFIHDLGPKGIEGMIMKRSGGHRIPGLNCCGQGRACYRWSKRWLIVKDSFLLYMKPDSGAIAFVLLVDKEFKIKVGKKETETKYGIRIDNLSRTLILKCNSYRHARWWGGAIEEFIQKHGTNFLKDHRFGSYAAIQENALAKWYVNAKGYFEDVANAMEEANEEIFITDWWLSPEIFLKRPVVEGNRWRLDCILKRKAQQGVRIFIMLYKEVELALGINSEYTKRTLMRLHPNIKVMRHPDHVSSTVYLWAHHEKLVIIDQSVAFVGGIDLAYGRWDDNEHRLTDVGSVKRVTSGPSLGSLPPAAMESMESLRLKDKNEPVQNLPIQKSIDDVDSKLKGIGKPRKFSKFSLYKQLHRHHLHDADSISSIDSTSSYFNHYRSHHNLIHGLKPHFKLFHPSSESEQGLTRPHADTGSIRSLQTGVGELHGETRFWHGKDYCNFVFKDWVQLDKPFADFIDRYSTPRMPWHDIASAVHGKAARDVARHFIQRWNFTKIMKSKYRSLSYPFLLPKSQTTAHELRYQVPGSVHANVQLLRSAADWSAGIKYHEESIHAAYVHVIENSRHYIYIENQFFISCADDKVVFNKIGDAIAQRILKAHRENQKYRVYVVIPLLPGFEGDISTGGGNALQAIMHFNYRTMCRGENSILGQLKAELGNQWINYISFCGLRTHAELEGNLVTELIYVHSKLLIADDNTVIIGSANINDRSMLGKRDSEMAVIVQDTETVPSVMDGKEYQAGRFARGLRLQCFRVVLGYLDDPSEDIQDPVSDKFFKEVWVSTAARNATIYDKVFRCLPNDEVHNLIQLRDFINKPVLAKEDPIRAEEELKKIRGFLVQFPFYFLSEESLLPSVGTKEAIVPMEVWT

Phospholipase D2 = Phospholipase D2 (Homo sapiens, UniProt O14939); experiment: cellular phospholipase D2 inhibition IC50 – cell-based, dose response (AID 602147); assay type: functional;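 also: cellular assay in HEK293 cells overexpressing GFP-tagged PLD2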
Chain of Phospholipase D2 (O14939 whole entry): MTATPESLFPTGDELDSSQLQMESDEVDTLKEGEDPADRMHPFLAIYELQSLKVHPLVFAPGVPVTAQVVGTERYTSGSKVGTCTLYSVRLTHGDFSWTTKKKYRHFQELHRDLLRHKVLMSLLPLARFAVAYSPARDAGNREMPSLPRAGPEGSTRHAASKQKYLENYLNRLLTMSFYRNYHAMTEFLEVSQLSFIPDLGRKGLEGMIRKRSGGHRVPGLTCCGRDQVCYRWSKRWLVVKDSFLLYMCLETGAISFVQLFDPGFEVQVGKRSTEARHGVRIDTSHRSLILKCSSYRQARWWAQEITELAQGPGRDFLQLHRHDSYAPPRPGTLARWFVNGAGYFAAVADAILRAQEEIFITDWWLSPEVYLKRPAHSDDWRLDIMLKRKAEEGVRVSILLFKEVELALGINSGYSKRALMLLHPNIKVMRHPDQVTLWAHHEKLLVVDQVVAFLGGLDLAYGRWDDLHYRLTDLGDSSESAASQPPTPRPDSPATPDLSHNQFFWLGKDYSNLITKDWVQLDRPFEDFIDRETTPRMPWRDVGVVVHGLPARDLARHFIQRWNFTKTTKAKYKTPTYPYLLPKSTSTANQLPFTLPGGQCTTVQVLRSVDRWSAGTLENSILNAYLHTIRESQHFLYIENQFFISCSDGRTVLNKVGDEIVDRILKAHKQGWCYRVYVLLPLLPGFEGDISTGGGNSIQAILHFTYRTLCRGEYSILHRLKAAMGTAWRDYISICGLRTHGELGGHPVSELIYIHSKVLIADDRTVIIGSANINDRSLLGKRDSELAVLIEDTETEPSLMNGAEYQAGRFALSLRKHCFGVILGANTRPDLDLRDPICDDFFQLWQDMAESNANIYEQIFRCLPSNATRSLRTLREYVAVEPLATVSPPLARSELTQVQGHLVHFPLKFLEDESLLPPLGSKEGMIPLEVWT

SMILES: Cc1nn(-c2ccccc2)c(Cl)c1CN(C(=O)CCl)c1cccc2ccccc12
- CC50 [1]: 0.591 µM (active)
- EC50 [2]: 3.44 µM (active)
- EC50 [3]: 2.25 µM (active)
- CC50 [4]: 1.81 µM (active)
- AC50 [5]: 2.28 µM (active)
- EC50 (Protein RecA): 0.571 µM (active)
- EC50 [6]: 16.7 µM (active)
- AC50 (Paired box protein Pax-8): 9.95 µM (active)
- AC50 [7]: 11.3 µM (active)

SMILES: COc1ccc(C2c3ccc(O)cc3Oc3ncn(CCN4CCOCC4)c(=N)c32)cc1OC (centres undefined)
- AC50 [8]: 15.5 µM (active)

SMILES: COc1ccc(-c2cn3c([n+]2-c2ccc(C)cc2)CCCCC3)cc1
- EC50 [9]: 0.171 µM (active)
- EC50 [10]: > 60 µM (not active)
- IC50 (Jurkat): > 80 µM (inactive)
- IC50 [11]: > 80 µM (inactive)
- AC50 (INS1): 0.348 µM (active)
- EC50 [6]: 9.77 µM (active)

SMILES: CN(C)CCCN(C(=O)CCSc1ccccc1)c1nc2cc3c(cc2s1)OCO3
- EC50 (Insulin-degrading enzyme [12]): > 54.7 µM (inactive)
- EC50 (Insulin-degrading enzyme [13]): > 54.7 µM (inactive)
- IC50 (HEK293 [14]): 33.9 µM (inactive)
- EC50 (HEK293 [15]): > 54.7 µM (inactive)

SMILES: Oc1ccc(/C=C/c2nc(-c3ccccc3O)n(-c3ccccc3)n2)cc1
- AC50 [16]: 6.8 µM (active)
- AC50 [8]: 18.8 µM (active)

SMILES: O=C(NCCN1CCC(n2nnc3ccccc32)CC1)c1ccc2ccccc2c1
- IC50 (Phospholipase D1): 2.7 µM (active)
- IC50 (Phospholipase D2): 1.75 µM (active)
